Data as given in US20200215018A1, “Gold(I) And Platinum(II) With Isocyanide Ligand Complexes: Synthesis And Biological Activity” (BOARD OF TRUSTEES OF THE UNIVERSITY OF ARKANSAS, priority 2019, published 2020).
Like-named read-outs stand apart in the source and are kept apart here.

Assays:
lung carcinoma (A549) = test: In vitro cytotoxicity against A549
breast carcinoma (MCF-7) = test: In vitro cytotoxicity against MCF-7; format: cell-based, human
[1] = system: ovarian carcinoma (SKOV3); test: In vitro cytotoxicity against SKOV3; format: cell-based, human
[2] = system: MCF-10A; normal human epithelial breast cell line; test: Proliferation of non-tumoral cell line MCF-10A; format: cell-based; conditions: Table 3, non-cancerous cell line; read-out: (IC50 ± SD) μM MCF-10A
Description: In addition, to verify the selectivity between cancer and normal cell line, the effects of these compounds on the proliferation of non-tumoral cell line (MCF-10A; normal human epithelial breast cell line) were also determined. […] In order to gain some more insight in the structure-activity relationship of the synthesized trans-Pt(II) complexes, the chemical descriptors of them such as surface area, volume, hydration energy, logP (measure of lipophilicity), refractivity (measuring the total polarizability of a mole of a compound), polarizability and mass were calculated using Hyperchem 8 software. The greater logP (lipophilicity) of complex 3a confirmed the importance of this descriptors for the cytotoxic activity of the trans-Pt(II) complexes.

SKOV3 cells = test: Intracellular ROS determination by flow cytometry (DCFH-DA); format: cell-based, human; conditions: SKOV3, 10, 20, 40 μM
Description: Changes in ROS levels were expressed as a ratio of the mean fluorescence intensity (MFI) in each condition divided by the basal intensity of the ROS at the untreated cells (negative controls, MFI0).
Flow cytometry was used for determination of cellular reactive oxygen species (ROS) in SKOV3 cell line after treatment with complex 3a. In this highly sensitive method, to consider ROS formation, SKOV3 cells were treated with complex 3a and H2O2 (positive control) and stained with 2′,7′-Dichlorodihydrofluorescein diacetate (DCFH-DA), a cell-permanent non-fluorescent dye which is oxidized by cellular ROS and produce 2′,7′-dichlorofluorescein (DCF) fluorescent component. The intensity of DCF is a direct estimate of the amount of ROS within the cells.

MCF-7 cells [3] = conditions: for percentages of apoptotic cells (Annexin V+ cells): 48 hours incubation; for living cells (Annexin V−/7-AAD− cells): 48 hours; for percentage of the cells in early apoptotic phase: 48 h
Description: Representative scatter plots show apoptosis of MCF-7 cells after 48 hours of incubation with different concentrations of (20, 40, and 80 mM) using the Annexin V-PE/7AAD detection kit. The percentages of apoptotic cells (Q2: late apoptotic and Q3: early apoptotic) were determined in Annexin V cells. Q1: necrotic cells, Q2: late apoptotic cells, Q3: early apoptotic cells, and Q4: living cells.

pCDNA plasmid = test: Electrophoresis mobility shift assay, pCDNA plasmid; format: binding; conditions: 100 to 800 uM, 24 h and 48 h
Description: FIG. 5 illustrates an electrophoresis mobility shift assay for platinum compounds for an embodiment of the present invention. A pCDNA plasmid in the circular form was incubated with cisplatin, 1b, and 2a at different concentrations for 24 h (A) and 48 h (B).
Electrophoresis mobility shift assay is a common method that is applied to show the interaction of compounds with DNA. […] The shift was more notable with an increase in the concentrations from 100 to 800 uM, especially in the case of complex 2a; however, this compound at a higher concentration seemed to interact with the KBC loading dye and was trapped in the wells.

pGEM-FT plasmid = test: Electrophoresis mobility shift assay, pGEM-FT plasmid; format: binding; conditions: 24 h, compared to cisplatin positive control
Description: FIG. 10 is a mobility shift assay of 1a compound. pGEM-FT plasmid in circular form was incubated with different concentrations of cisplatin (positive controls) as well as compound 1a for 24 h for additional embodiments of the present invention.
Here, comet assay was used as a valuable method to predict the genotoxic effect of new synthesized trans-Pt(II) complexes on cancerous cells. In this single cell microgel electrophoresis method, following the DNA damage, the migration of chromosomal DNA from the nucleus increases and resembles the shape of a tail or comet. The longer tails display the more genotoxicity, while untreated cells as un-fragmented cells, represent a little or no tail. […] It could also be seen that compared to the untreated control, complex 3a could make a nick in DNA and subsequently slightly shift the mobility of the plasmid in a dose dependent manner. These observations confirm the direct interaction of complex 3a with DNA through genotoxic effect as observed in comet assay.
(§1) This is also effected by differences in the concentrations of complex 3a in comparison to untreated cells (negative control). pGEM-FT plasmid in circular form was incubated with different concentrations of cisplatin (positive controls) as well as complex 3a for 24 h.

MCF-7 cells [4] = conditions: MCF-7, compared to untreated cells
Text: Quantitation of DNA content using flow cytometry or cell cycle analysis, is a basic method which is commonly used to assess the mechanisms of antiproliferative effects of anticancer drugs. In this method, a fluorescent DNA binding dye (in the present study: propidium iodide, PI) is used to stain DNA and measure the amount of DNA present in the cell. The cells in the G2 phase are expected to absorb approximately twice the amount of color compared to the cells in G1 as their DNA content has been doubled during S phase. Therefore, the cells in S phase have more DNA than G1 cells but less than G2 ones.

MCF-7 cells [5] = test: Comet assay (genotoxicity); format: cell-based, human
Text: Here, comet assay was used as a valuable method to predict the genotoxic effect of new synthesized trans-Pt(II) complexes on cancerous cells. In this single cell microgel electrophoresis method, following the DNA damage, the migration of chromosomal DNA from the nucleus increases and resembles the shape of a tail or comet. The longer tails display the more genotoxicity, while untreated cells as un-fragmented cells, represent a little or no tail.
as §1

[6] = read-out: (IC50 ± SD) μM A549, Table 3, trans-Pt(II) thiolate series A, 3a-e and ligands
[7] = read-out: IC50 (μM ± SD) A549, Table 1, Pt(II) isocyanide series 1a-c, 2a-c
[8] = read-out: IC50 A549, gold(I) complex study
[9] = Table 1, Pt(II) isocyanide series 1a-c, 2a-c, read-out: IC50 (μM ± SD) MCF-7
[10] = Table 3, trans-Pt(II) thiolate series A, 3a-e, read-out: (IC50 ± SD) μM MCF-7
[11] = gold(I) complex study, read-out: IC50 MCF-7
[12] = Table 1, Pt(II) isocyanide series 1a-c, 2a-c, read-out: IC50 (μM ± SD) SKOV3
[13] = Table 3, trans-Pt(II) thiolate series A, 3a-e, read-out: (IC50 ± SD) μM SKOV3
[14] = gold(I) complex study, read-out: IC50 SKOV3
[15] = Homo sapiens, A549, read-out: (IC50 ± SD) μM A549

SMILES: N.N.[Cl][Pt][Cl] [Cisplatin, reference compound]
- IC50 (lung carcinoma (A549); [6]): 9.71 µM
- IC50 (lung carcinoma (A549); [7]): 6.68 ± 0.72 µM
- IC50 (lung carcinoma (A549); [8]): 7.62 µM
- IC50 (breast carcinoma (MCF-7); [9]): 13.4 µM
- IC50 (breast carcinoma (MCF-7); [10]): 11.6 µM
- IC50 (breast carcinoma (MCF-7); [11]): 11.5 µM
- IC50 [1, 12]: 14.6 ± 1.3 µM
- IC50 [1, 13]: 14.5 µM
- IC50 [1, 14]: 12.4 µM
- IC50 [2]: 29.5 ± 1.03 µM

SMILES: OO [H2O2, reference compound]
- ROS production (MFI/MFI0) (SKOV3 cells): induce ROS production within 20 minutes

SMILES: C=CCP(c1ccccc1)c1ccccc1 [PPh2allyl, allyldiphenylphosphine]
- IC50 (lung carcinoma (A549); [15]): > 100 µM

SMILES: Sc1nc2ccccc2[nH]1 [Sbi, benzimidazole-2-thiol]
- IC50 (lung carcinoma (A549); [15]): > 100 µM

SMILES: Sc1nc2ccccc2s1 [Sbt, benzothiazole-2-thiol]
- IC50 (lung carcinoma (A549); [15]): > 100 µM

SMILES: Sc1ccccn1 [Spy, pyridine-2-thiol]
- IC50 (lung carcinoma (A549); [15]): > 100 µM

SMILES: FC(F)(F)c1ccc(S)nc1 [Spy-5-CF3, 5-(trifluoromethyl)-pyridine-2-thiol]
- IC50 (lung carcinoma (A549); [15]): > 100 µM

SMILES: Sc1ncccn1 [SpyN, pyrimidine-2-thiol]
- IC50 (lung carcinoma (A549); [15]): > 100 µM

SMILES: [CH3][Pt-2]([CH3])([C]#[N+]Cc1ccccc1)[C]#[N+]Cc1ccccc1 [complex 1b, [Me2Pt(CNR)2] (R=benzyl)]
- percentages of apoptotic cells (Annexin V+ cells) (MCF-7 cells [3]; 80 uM): 77.22%
- percentages of apoptotic cells (Annexin V+ cells) (MCF-7 cells [3]): 27.36%
- living cells (Annexin V−/7-AAD− cells) (MCF-7 cells [3]; highest concentration (80)): 15.3%
- living cells (Annexin V−/7-AAD− cells) (MCF-7 cells [3]; lowest concentration (20)): 72.1%
- shift in the mobility of the plasmid (pCDNA plasmid): obvious shift in the mobility of the plasmid
- IC50 (lung carcinoma (A549); [7]): 21.4 ± 2.18 µM
- IC50 (breast carcinoma (MCF-7); [9]): 12.5 µM
- IC50 [1, 12]: 15.9 ± 1.25 µM

SMILES: [CH3][Pt-2]([CH3])([C]#[N+]C1CCCCC1)[C]#[N+]C1CCCCC1 [complex 1c, [Me2Pt(CNR)2] (R=cyclohexyl)]
- IC50 (lung carcinoma (A549); [7]): 50.8 ± 1.64 µM
- IC50 (breast carcinoma (MCF-7); [9]): 68.3 ± 3.21 µM
- IC50 [1, 12]: 44.6 ± 1.17 µM

SMILES: [C](#[N+]Cc1ccccc1)[Au-][S]c1ncccn1 [complex 2]
- induction of cellular apoptosis (MCF-7 cells [3]; gold(I) complex study, MCF-7): induces apoptosis in cancerous cells in a dose-dependent manner
- IC50 (lung carcinoma (A549); [8]): 7.8 µM
- IC50 (breast carcinoma (MCF-7); [11]): 6.14 µM
- IC50 [1, 14]: 6.26 µM

SMILES: Cc1cc[c]([Pt-2]([C]#[N+]C(C)(C)C)([C]#[N+]C(C)(C)C)[c]2ccc(C)cc2)cc1 [complex 2a, [(p-tolyl)2Pt(CNR)2] (R=t-butyl)]
- shift in the mobility of the plasmid (pCDNA plasmid): obvious shift in the mobility of the plasmid
- IC50 (lung carcinoma (A549); [7]): 19.2 ± 2.59 µM
- IC50 (breast carcinoma (MCF-7); [9]): 11.1 ± 0.59 µM
- IC50 [1, 12]: 18.5 ± 2.38 µM

SMILES: Cc1cc[c]([Pt-2]([C]#[N+]Cc2ccccc2)([C]#[N+]Cc2ccccc2)[c]2ccc(C)cc2)cc1 [complex 2b, [(p-tolyl)2(CNR)2] (R=benzyl)]
- IC50 (lung carcinoma (A549); [7]): 31.2 ± 2.27 µM
- IC50 (breast carcinoma (MCF-7); [9]): 62.3 ± 1.67 µM
- IC50 [1, 12]: 55.3 ± 2.19 µM

SMILES: Cc1cc[c]([Pt-2]([C]#[N+]C2CCCCC2)([C]#[N+]C2CCCCC2)[c]2ccc(C)cc2)cc1 [complex 2c, [(p-tolyl)2(CNR)2] (R=cyclohexyl)]
- IC50 (lung carcinoma (A549); [7]): 44.3 ± 1.38 µM
- IC50 (breast carcinoma (MCF-7); [9]): 72.4 ± 2.32 µM
- IC50 [1, 12]: 67.1 ± 1.54 µM

SMILES: C=CC[P+](c1ccccc1)(c1ccccc1)[Pt-2]([S]c1ccccn1)([S]c1ccccn1)[P+](CC=C)(c1ccccc1)c1ccccc1 [complex 3a, trans-[Pt(PPh2allyl)2(κ^1—S—SR)2]]
- ROS production (MFI/MFI0) (SKOV3 cells): moderately induce ROS
- shift in the mobility of the plasmid (pGEM-FT plasmid): a little shift
- effect on the cell cycle (MCF-7 cells [4]): no clear effect
- percentage of the cells in early apoptotic phase (MCF-7 cells [3]; 2.5 μM): 11.0%
- percentage of the cells in early apoptotic phase (MCF-7 cells [3]; 5 μM): 40.8%
- percentage of the cells in early apoptotic phase (MCF-7 cells [3]; 10 μM): 62.9%
- IC50 (lung carcinoma (A549); [6]): 4.31 µM
- IC50 (breast carcinoma (MCF-7); [10]): 4.8 µM
- IC50 [1, 13]: 6.23 µM
- IC50 [2]: 38.4 ± 2.06 µM
- genotoxic effect (comet tail) (MCF-7 cells [5]; MCF-7, 10 and 50 μM): strong genotoxic ability

SMILES: C=CC[P+](c1ccccc1)(c1ccccc1)[Pt-2]([Cl])([Cl])[P+](CC=C)(c1ccccc1)c1ccccc1 [complex A, cis-[Pt(PPh2allyl)2Cl2]]
- IC50 (lung carcinoma (A549); [6]): 22.5 ± 1.62 µM
- IC50 (breast carcinoma (MCF-7); [10]): 19 ± 1.24 µM
- IC50 [1, 13]: 34.5 ± 1.53 µM
- IC50 [2]: 68.7 ± 1.21 µM

SMILES: COc1cccc2c1C(=O)c1c(O)c3c(c(O)c1C2=O)C[C@@](O)(C(=O)CO)C[C@@H]3O[C@H]1C[C@H](N)[C@H](O)[C@H](C)O1 [doxorubicin, reference compound]
- percentage of degraded DNA in the tail (MCF-7 cells [5]; MCF-7, positive control, vs untreated cells): remarkably increased
